# Data published in patent US8324188B2, “Combinations of ET-18-O-CH3and anti-cancer agents for the treatment of cancer” (priority 2006, dated 2012).
# How the values were obtained:
# [1] = tested on: androgen-insensitive LNCaP-Res cells; test: apoptosis in LNCaP-Res cells; assay type: cell-based, human; settings: data not shown
# [2] = tested on: LN-18; test: WST-1 proliferation assay, LN-18; assay type: cell-based; settings: Homo sapiens
# Experimental: 2000 cells were plated in each well of 96-well flat bottom plates, and incubated overnight at 37 °C in 5% CO2. The growth of plated cells was measured by adding […] of WST-1 reagent (Roche Applied Sciences, Germany) to 3 control wells and measuring the absorbance at 650 nm and at 450 nm, respectively, with a SpectraMax250 plate reader. […] After this incubation, VVST-1 reagent was added to the wells and OD650-OD450 values were calculated as before. six wells were assayed for each conditions and standard deviation was determined: all experiments were performed at least three times independently. […] Six different concentrations of each drug were used in combinations index measurements and compared to +/− cells, and compared to controls without compound.
# [3] = tested on: LNCaP cells grown orthotopically in the prostates of nude mice; test: LNCaP cells grown orthotopically in the prostates of nude mice (PSA, tumor volume); assay type: in vivo; settings: 0-30 mg/kg intraperitoneal injections and concomitant irradiation; dose-dependent effect
# Experimental: FIG. 2. Depicts the in vivo effects of 1-O-octadecyl-2-O-methyl-glycero-3-phosphocholine (30 mg/kg body weight/day administered intraperitoneally for 15 days; FIG. 2A), (ionizing) radiation (absorbed dose of 5 Gray units administered on day 7); FIG. 2C), and a combination thereof (FIG. 2B) on LNCaP cells grown orthotopically in the prostates of nude mice (seven mice/group). Tumor growth was assessed via determining the serum level of the prostate-specific antigen (PSA) using a commercially available test kit as well as the tumor volume by means of magnetic resonance imaging. Graphed lines show tumor size in individual mice.
# It is known that prostate cancer cell lines express FAS receptor, that some of them are not sensitive to FAS (O. W. Rokhlin et al., Cancer Res. 1997, 57: 1758-68). […]
# 1-O-octadecyl-2-O-methyl-glycero-3-phosphocholine was administered intraperitoneally in a dose of 30 mg/kg body weight/day administered intraperitoneally for 15 days (FIG. 2A; studies using different routes of administration such as orally or by gavage are currently under way). […] Tumor growth was assessed via determining the serum level of the prostate-specific antigen (PSA) using a commercially available test kit as well as the tumor volume by means of magnetic resonance imaging.
smiles,measurement,setting,value
"CCCCCCCCCCCCCCCCCCOCC(COP(=O)([O-])OCC[N+](C)(C)C)OC (racemic) [AP-121, 1-O-octadecyl-2-O-methyl-glycero-3-phosphocholine]",apoptosis in CHEM+RT treated cells,[1],enhancement of apoptosis
same,IC50,[2],1300 nM
same,PSA (prostate specific antigen) levels,[3],reduced after few days of treatment
same,tumor size,[3],shrinkage of the tumor size after one week of treatment
